Results from ChEMBL document CHEMBL1140559, “Synthesis and cytotoxic activity of various 5-[alkoxy-(4-nitro-phenyl)-methyl]-uracils in their racemic form” (Bioorg Med Chem Lett, 2007).
Calls of active or inactive are those of the source. No cut-off for these calls is given here.

Assays:
Format in all cases: functional, cell-based
Conditions in all cases: Homo sapiens
[1] = test system: K562-Tax; test: Cytotoxicity against p-glycoprotein positive K562-Tax cells
[2] = test system: CCRF-CEM; test: Cytotoxicity against lung resistance protein positive CEM cells
[3] = test system: CCRF-CEM; test: Increase in RNA synthesis in CEM cells at IC50
[4] = test system: CCRF-CEM; test: Inhibition of DNA synthesis in CEM cells at 5 times IC50
[5] = test system: CCRF-CEM; test: Inhibition of RNA synthesis in CEM cells at IC50
[6] = test system: CCRF-CEM; test: Induction of apoptosis in CEM cells at IC50 after 24 hrs […]
[7] = test system: CCRF-CEM; test: Inhibition of DNA synthesis in CEM cells at IC50

| SMILES | Activity [1] | Activity [2] | Activity [3] | Activity [4] | Activity [5] | Activity [6] | Activity [7] |
| --- | --- | --- | --- | --- | --- | --- | --- |
| CCCCCCCCCCCOC(c1ccc([N+](=O)[O-])cc1)c1c[nH]c(=O)[nH]c1=O (stereo not given) | Active | Active |  |  |  |  |  |
| CCCCCCCCOC(c1ccc([N+](=O)[O-])cc1)c1c[nH]c(=O)[nH]c1=O (stereo not given) | Active | Active | Active | Active |  |  |  |
| CCCCCCOC(c1ccc([N+](=O)[O-])cc1)c1c[nH]c(=O)[nH]c1=O (stereo not given) |  |  |  | Active | Active | Active | Active |
| CCCCCCCCCCOC(c1ccc([N+](=O)[O-])cc1)c1c[nH]c(=O)[nH]c1=O (stereo not given) | Active | Active |  |  |  |  |  |
| CCCCCCCCCCCCOC(c1ccc([N+](=O)[O-])cc1)c1c[nH]c(=O)[nH]c1=O (stereo not given) | Active | Active |  |  |  |  |  |
| CCCCCCCOC(c1ccc([N+](=O)[O-])cc1)c1c[nH]c(=O)[nH]c1=O (stereo not given) | Active | Active | Active | Active |  |  |  |
| CCCCCCCCCOC(c1ccc([N+](=O)[O-])cc1)c1c[nH]c(=O)[nH]c1=O (stereo not given) | Active | Active |  |  |  |  |  |
